Patent publication USRE42072E1, “Compositions and methods for enhancing receptor-mediated cellular internalization” (The Penn State Research Foundation, priority 1996, dated 2011)

How the values were obtained:
[1] = Bioavailability of peptides after vaginal administration to sheep, relative to intravenous injection; conditions: in vivo
Protocol: (§1) First, a peptide that undergoes receptor-mediated transport across the vaginal epithelium was identified by studying the permeation of peptides of varying molecular weight in a sheep model. Peptides were delivered vaginally to sheep in 5 ml of aqueous or methocel solutions with typical peptide concentrations of 10-40 μg/ml. A group of 18 intact ewes were utilized for these experiments. For each study, sheep were randomly assigned to a treatment group. In GnRH studies where each animal received all possible treatment combinations, each animal was assigned to an initial treatment group at random and subsequently randomly to each of the remaining treatment groups. A minimum of 5 days (typically 10 or more days) was allowed between experiments on a given animal, to provide sufficient time for complete recovery of pituitary responsiveness to the highest doses of the GnRH agonist used A 16G 150 mm jugular catheter (Abbocath-T, Abbott Laboratories, Chicago, Ill.) was inserted and blood samples collected at 0, 30, 60, 90, 120, 180, 240, 360, 480 and 1440 min. after treatment. Luteinizing hormone (LH) levels were determined.
(§2) LHRH analog was placed in methyl cellulose solutions (“methocels”) of varying apparent viscosity. […] First, 200 μg of leuprolide acetate in 5 ml of aqueous solutions with melhocel weight concentrations varying between 0% and 3.0% were vaginally administered.
The enhanced bioavailability of LHRH also coincides with a longer-term release into the systemic circulation at the optimal methocel concentrations. […] To test this hypothesis, the efficacy of a second, physically cross-linked hydrogel that was believed would not enhance endocytosis, but whose apparent viscosity (in the range of hydrogel concentrations 0.0-5.5%) was similar to that of the methocels (in the range 0.0-3.0%) was examined.

luteinizing hormone (LH) [2] = assay: Serum LH response to iv injection and vaginal administration of LHRH analog in intact ewes; assay type: in vivo, sheep
Protocol: FIGS. 1a and 1b are graphs showing serum responses to iv injection and vacinal administration of vasopressin and leuprolide acetate. […] Vasopressin was injected intravenously ([…]) through a jugular catheter. The peptide was delivered vaginally in 5 ml of aqueous solution (200 g does). Standard errors are based on n=6. […] LHRH analog was injected intravenously ([…]) into through a jugular catheter. The peptide was delivered vaginally in 5 ml of aqueous solution (200 g dose). Standard errors are based on n=6.
FIG. 2 is a graph showing bioavailability of LHRH analog following vaginal administration as a function of methyl cellulose (“methocel”) concentration. Bioavailability is determined relative to intravenous injection (FIG. 1b) and is based on LH response. The administered dose of LHRH analog was 200 g in 5 ml of methocel solution. Results are based on animals that responded to vaginal treatment, with standard error computed on the basis of n≧4 In all cases, less than 50% of treated animals responded with LH levels greater than 3 ng/ml for more than one sampling point, with sampling times of 0, 30, 60, 90, 120, 180, 240, 360, and 480 min.
as §1, §2

luteinizing hormone (LH) [3] = assay: in vivo; assay type: in vivo, sheep; conditions: for animals responded: vaginal 200 μg; for LH response: vaginal, progesterone and estradiol treatment
Protocol: (§3) FIG. 3 is a graph showing the percent of responding animals to LHRH analog vaginal delivery as a function of (simulated) stage of the estrous cycle. Stage of estrous cycle was simulated by delivering estradiol for two weeks to ovariectomized ewes (anestrus phase), followed by two weeks of delivery of estradiol and progesterone (mid-luteal phase), followed by a period of 48 h after progesterone withdrawal (follicular phase). In each simulated phase, 10, 40, or […] of LHRH analog were delivered vaginally in 5 ml of aqueous or methocel solution to groups of six ewes. Responding animals were defined as those treated animals with LH serum values exceeding 3 ng/ml for two or more sampling points, with sampling times of 0, 30, 60, […], 120, 180, 240, 360, and 480 min.
(§4) FIG. 4 is a graph showing serum LH response to vaginal administration of LHRH analog. LHRH analog-was administered vaginally in ovariectomized ewes during the simulated mid-luteal phase in 5 ml of aqueous or methocel (1.75% methyl cellulose) solution (40 μg dose). Standard errors are based on n=6.
(§5) It was therefore hypothesized that the responsiveness of animals to LHRH analog vaginal delivery varied with steroid-dependent hormone receptor expression (estrous cycle). To test this hypothesis, a group of ewes was ovariectomized and administered estradiol and progesterone to mimic the animals' estrous cycle. Ewes were pre-medicated with atropine (0.02 mg/lb) and Telazol (R) (2 mg/lb) intramuscularly. After induction of recumbency, thipental (5% in water) was administered intravenously to induce sufficient anesthesia to permit endotracheal intubation. Anesthesia was maintained using halothane in oxygen at 1-2 liters per minute. Ovaries were removed through a mid-line incision.
(§6) Within 24 h of surgery, a 1.5 cm silicone implant of estradiol (Compudose 200, Elanco, Ind.) was inserted into the left ear to provide a basal level of estradiol. The anestrus state was simulated after two weeks of estradiol delivery following surgery. Experiments were performed in the simulated anestrus state (i.e. two weeks after surgery) as described above. Immediately following the last blood sample, a progesterone-releasing intravaginal device (CIDR-G, Carter Hold Harvey Plastic Products, Hamilton, New Zealand) was inserted.
(§7) In a parallel study, an alternative progesterone-releasing device (Snychro-Mate-B, Sanofi Animal Health, Overland Park, Kans.) was placed in the left ear. The mid-luteal phase was simulated after permitting a 10 day intravaginal or ear progesterone treatment. Experiments were performed in the simulated mid-luteal phase as described above.
(§8) The progesterone-releasing (vaginal or ear) implant was removed and the follicular phase was simulated by allowing a time lapse of 48 h. Experiments were performed in the follicular phase as described above.
(§9) Next, 200 μg of leuprolide acetate in 5 ml of aqueous solutions was vaginally administered during simulated anestrus (estradiol only), mid-luteal (estradiol and progesterone), and follicular (48 h after progesterone withdrawal) phases, as described above. […] In contrast, 100% of animals responded when treated with progesterone and estradiol (FIG. 3).

in vivo = assay type: in vivo, sheep; conditions: female, sheep, in vivo, 40 ug, bioavailability
Protocol: as §3, §4, §5, §6, §7, §8, §9

For CCNC(=O)[C@@H]1CCCN1C(=O)[C@H](CCCNC(=N)N)NC(=O)[C@H](CC(C)C)NC(=O)[C@@H](CC(C)C)NC(=O)[C@H](Cc1ccc(O)cc1)NC(=O)[C@H](CO)NC(=O)[C@H](Cc1c[nH]c2ccccc12)NC(=O)[C@H](Cc1c[nH]cn1)NC(=O)[C@@H]1CCC(=O)N1 [leuprolide acetate], the bioavailability ([1]; female, sheep) was 2.6 ± 0.9%, the “duration of delivery as a function of control gel concentration” value [1] was “diminished with increasing control gel concentration” and the “bioavailability as a function of control hydrogel concentration” value ([1]; sheep) was “diminished with increasing concentration of the hydrogel”. For the same compound, the “bioavailability as a function of methocel concentration” value ([1]; sheep, 200 ug) was “increase as methocel concentration increased to 1.75%, then to fall at higher methocel concentration”, the “luteinizing hormone (LH) response” value (luteinizing hormone (LH) [2]; intravenous injection (FIG. 1b)) was “significant” and the “luteinizing hormone (LH) response” value (luteinizing hormone (LH) [2]; vaginal administration, aqueous solution (FIG. 1b)) was “significant”. The “animals showing little or no response” value (luteinizing hormone (LH) [2]; vaginal administration, intact ewes, bimodal distribution) was “approximately 30%”, the “treated animals that responded with LH levels greater than 3 ng/ml for more than one sampling point” value (luteinizing hormone (LH) [2]; vaginal, 5 ml methocel solution, intact ewes, all methocel concentrations (FIG. 2)) was “less than 50%” and the bioavailability (luteinizing hormone (LH) [3]; female, sheep, in vivo, 40 ug) was 10%. The animals responded (luteinizing hormone (LH) [3]; treated with progesterone and estradiol (FIG. 3)) was 100%, the animals responded (luteinizing hormone (LH) [3]; with or without 1.75% methocel, estrogen replacement without progesterone) was “less than 50%” and the LH response (luteinizing hormone (LH) [3]; highest dose, with and without methocel) was “saturated”. For the same compound, the LH response (luteinizing hormone (LH) [3]; lowest dose (10 μg)) was “undetectable” and the bioavailability (in vivo) was 6%.
